Article PMC5238392, “Origin of anti-tumor activity of the cysteine-containing GO peptides and further optimization of their cytotoxic properties” (Scientific Reports, 2017)
Like-named read-outs stand apart in the source and are kept apart here. Square brackets hold non-standard residues; d marks the D form. Peptide text beside a SMILES is read from it.

What was measured:
[1] = tested on: human fibrosarcoma cell line HT-1080; assay type: cell-based
Description: To evaluate the activity of DIL, CopYL and seven other peptides described in Table 1, we have conducted the dose-response measurements on the sensitive (HT-1080) and insensitive (ZR-75-1) cancer cell lines. The results are shown in Fig. 7A–D. For fibrosarcoma cells HT-1080, the best results are obtained using the peptide DOL with presumed disulfide oxidase properties. […] This is a much better performance than shown by GO-202 where the survival rate under identical conditions is 16%.
All experiments were conducted in duplicate or triplicate.

[2] = tested on: human endometrial mesenchymal stem cells (eMSC)
Description: (§1) The data are according to the MTS assay, where the optical density was measured 96 h after the application of the peptide.
(§2) As a next step, we set out to test the cytotoxic effect of these peptides on the normal cells. In addition to the primary culture of dermal fibroblasts, which has been discussed above, we have also used human endometrial mesenchymal stem cells (eMSC).
(§3) Cell survival was measured using CellTiter 96 AQueous One Solution Cell Proliferation Assay (MTS test, Promega, USA). Cells have been seeded in a 96-well flat-bottom plate in 100 μl of culture medium (10^3 cells/well for A549, HT-1080, dermal fibroblasts and eMSC or 5 × 10^3 cells/well for ZR-75-1) and allowed to attach for 24 h. The starting amount of cells was chosen to account for their growth rate and degree of spreading such as to avoid excessive dilution in the beginning of the experiment or control cell overgrowth toward the end. After 24 h, 10 μl of peptide stock solution or PBS (control) were added to the wells. After 96 h, 20 μl of the MTS-reagent were added to each well and 1–2 h later optical density was measured at the wavelength 492 nm using the 96-well plate reader (Titertek Multiskan, Labsystems, Finland). All experiments were conducted in duplicate or triplicate.

[3] = tested on: primary culture of human dermal fibroblasts (DF)
Description: (§4) As a next step, we used MTS assay[27] to examine the effect of GO peptides on the viability of the four described cell cultures as a function of different treatment schemes. […] This treatment regimen is labeled 4 × 5 underneath the graph. Alternatively, we introduced 5 μM of peptide daily while exchanging the medium (denoted 4/5). Unlike the previous protocol, it avoids potential build-up of the peptide in the medium.
(§5) The treatment protocols are: 4 × 5 – four daily doses of 5 μM delivered without exchanging the growth medium; 4/5 – four daily doses of 5 μM delivered with exchanged growth medium; 1 × 5, 1 × 10, 1 × 15, and 1 × 20 – a single dose of 5, 10, 15, or 20 μM, respectively. MTS reagent was added to the wells 96 h after the first (and sometimes the only) application of the peptide and the optical density at 492 nm was measured to determine the fraction of the surviving cells.
(§6) As a next step, we set out to test the cytotoxic effect of these peptides on the normal cells.
as §3

[4] = tested on: primary culture of human dermal fibroblasts (DF); assay: MTS cell viability assay, dermal fibroblasts; settings: for Effect on proliferative activity at low dose (MTS): 5 μM single dose
Description: as §4, §5, §6, §3

[5] = tested on: human breast carcinoma cell line ZR-75-1
Description: as §4, §5, §1, §3

[6] = tested on: human breast carcinoma and prostate cancer cells; settings: cited from earlier work
[7] = tested on: human breast carcinoma cell line ZR-75-1; assay: MTS cell viability assay, ZR-75-1; settings: single dose
Description: as §4, §5, §1, §3

[8] = biological target: T1, reduced and denatured hen egg white lysozyme (Gallus gallus, UniProt P00698); assay: Lysozyme oxidative refolding assay (disulfide oxidoreductase activity); assay type: biochemical; settings: 1 mM peptide, pH 8.5, room temperature
T1 construct: Hen egg white lysozyme (Amresco, USA) was reduced/denatured and lyophilized; purchased Amresco, USA; host or cells: hen egg white
Description: We have also conducted in vitro experiments to directly probe disulfide oxidoreductase properties of GO-202 peptide. For this purpose we have used the well-established lysozyme refolding assay. In brief, GO-202 is applied to the sample of reduced and denatured hen lysozyme. The protein then undergoes oxidative refolding, assisted by GO-202 which plays the role of disulfide oxidase (isomerase). After a certain interval of time (Tox) this process is quenched by adding an aliquot of acid and the sample is loaded on the reverse phase column.
Figure 10 Oxidative refolding of hen egg lysozyme as monitored by reverse-phase HPLC. […] Top panel (red traces) illustrate protein renaturation in the presence of GO-202; bottom panel (blue traces) represent control measurements with no peptide. The reaction time Tox ranging from 0 to 75 mins is listed on the left side of the individual chromatograms.
Hen egg white lysozyme (Amresco, USA) was reduced/denatured and lyophilized according to the protocol by van den Berg et al.[54]. It was then dissolved in buffer B1 (8 M urea, 100 mM Tris-HCl, 100 mM NaCl, 1 mM EDTA, pH 8.5) to obtain solution with 100 μM lysozyme concentration. Refolding was initiated by rapid dilution of 50 μL of this solution in 150 μL of buffer B2 (100 mM Tris-HCl, 100 mM NaCl, 1 mM EDTA, pH 8.5) containing the appropriate amount of redox agent (none for control experiment, 1.0 mM/0.2 mM GSH/GSSG for calibration experiment, 1 mM of GO-202 for disulfide oxidoreductase activity assay). The reactions were carried out at room temperature and quenched by addition of 10 μL of 2.5 M HCl to produce a pH of ca. 2. Buffers B1 and B2 were degassed prior to use by applying vacuum while stirred on magnetic stirrer for 30 min.
Reverse-phase chromatography data were obtained using Shimadzu Nexera HPLC with detection at 280 nm wavelength. The column used was Phenomenex Luna C-18 (5 μm particle size, 100 Å pore size, 150 mm length, 4.6 mm diameter); sample injection volume was 20 μL. HPLC solvent A was H2O/0.2% (v/v) trifluroacetic acid (TFA), solvent B was 90% CH3CN/10% H2O/0.2% TFA. Lysozyme was eluted using 30 min linear gradient from 35% to 45% of solvent B with a flow rate of 1 mL/min. Chromatograms from calibration GSH/GSSG experiments were in agreement with the previously reported data[54][63].

[9] = tested on: human fibrosarcoma cell line HT-1080; assay type: cell-based; settings: for Viability of HT-1080 cells (MTS): single 20 μM dose, different incubation times, Fig. 9
[10] = tested on: human endometrial mesenchymal stem cells (eMSC); assay: MTS cell viability assay, eMSC; settings: normal cells: eMSC; single dose, 96 h; Fig. 7E,F
Description: as §1, §2, §3

[11] = cited from earlier work
Description: Some interesting examples of peptides with presumed DO mechanism can also be found in the literature. […] The efficiency of this peptide was critically dependent on the two contiguous cysteines: mutating these residues to alanines or serines completely abrogated its activity, whereas other alterations such as sequence reversal preserved the activity.

lysozyme = settings: oxidative refolding of lysozyme in vitro; cited from earlier work
Description: One instructive example of the redox-active peptides in Table 1 is the peptide labeled DIL (disulfide-isomerase-like). Originally, Woycechowsky and Raines have investigated the CGC peptide, where they measured the redox potential of −167 mV[40]. […] Recently, a longer peptide, RKCGCFF, has been introduced by Liu et al.[41]. The two basic residues, RK, have been added to the sequence with the intent to lower the thiol pKa values, while the two hydrophobic residues, FF, have been included to improve binding of the pept ...

T1 sequence (P00698 19-147): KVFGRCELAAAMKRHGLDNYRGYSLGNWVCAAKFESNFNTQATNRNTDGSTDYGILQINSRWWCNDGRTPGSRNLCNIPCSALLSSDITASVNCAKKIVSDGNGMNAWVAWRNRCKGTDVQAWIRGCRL

[R]9CCCRRKN
Cytotoxic activity compared with GO-202 (dose-response, MTS) [1]: outperform the standard GO-202, although only by a small margin | Cytotoxic activity compared with GO-202 (dose-response, MTS) [2]: strongest effect | Cytotoxic activity compared with GO-202 (dose-response, MTS) [3]: outperform GO-202 | Effect on proliferative activity at low dose (MTS) ([4]; dermal fibroblasts, 96 h): small increases in proliferative activity | Cytotoxic activity compared with GO-202 (dose-response, MTS) [5]: significantly outperform GO-202

[R]9AQARRKNYGQLDIFP [CP-1]
Cytotoxic properties [6]: no appreciable cytotoxic properties

[R]9KCGCFF [DIL]
Cytotoxic activity compared with GO-202 (dose-response, MTS) [1]: second best result | Cytotoxic activity compared with GO-202 (dose-response, MTS) [2]: less cytotoxic than GO-202 | Cytotoxic activity compared with GO-202 (dose-response, MTS) [3]: less cytotoxic than GO-202 | Effect on proliferative activity at low dose (MTS) ([4]; dermal fibroblasts, 96 h): small increases in proliferative activity | Cytotoxic activity compared with GO-202 (dose-response, MTS) [5]: significantly outperform GO-202

[R]9GCGPCG [DRL]
Cytotoxic activity compared with GO-202 (dose-response, MTS) [1]: inactive | Cytotoxic activity compared with GO-202 (dose-response, MTS) [5]: inactive

N=C(N)NCCC[C@@H](N)C(=O)N[C@H](CCCNC(=N)N)C(=O)N[C@H](CCCNC(=N)N)C(=O)N[C@H](CCCNC(=N)N)C(=O)N[C@H](CCCNC(=N)N)C(=O)N[C@H](CCCNC(=N)N)C(=O)N[C@H](CCCNC(=N)N)C(=O)N[C@H](CCCNC(=N)N)C(=O)N[C@H](CCCNC(=N)N)C(=O)N[C@@H](CS)C(=O)N[C@@H](CCC(N)=O)C(=O)N[C@@H](CS)C(=O)N[C@@H](CCCNC(=N)N)C(=O)N[C@@H](CCCNC(=N)N)C(=O)N[C@@H](CCCCN)C(=O)N[C@@H](CC(N)=O)C(=O)O [GO-202] (H-[dR][dR][dR][dR][dR][dR][dR][dR][dR]CQCRRKN-OH; N-terminus and C-terminus assumed)
Cytotoxic activity compared with GO-202 (dose-response, MTS) ([7]; OD measured 96 h after application, Fig. 7C,D): modestly active | Disulfide oxidoreductase activity in oxidative refolding of lysozyme ([8]; 25 μM-scale lysozyme diluted from 100 μM stock, RP-HPLC 280 nm): moderately effective disulfide oxidoreductase | Reaction time Tox after which a significant fraction of lysozyme is fully oxidized natively folded ([8]; RP-HPLC): 15 min | Reaction time Tox after which native form of lysozyme is dominant ([8]; RP-HPLC): 75 min | Reaction time Tox after which no distinct peak from reduced lysozyme is observed ([8]; RP-HPLC, control without peptide: partially oxidized after ca. 75 mins): ≤ 1 min | Cell viability (MTS) ([9]; HT-1080, 4 × 5: four daily doses of 5 μM without exchanging growth medium, OD 492 nm 96 h after first application, duplicate or triplicate): significant impact | Viability of HT-1080 cells (MTS) [9]: cell death occurs soon after the GO-202 treatment | Effect on proliferative activity at low dose (MTS) ([4]; dermal fibroblasts, 96 h): small increases in proliferative activity | Cell viability (MTS) ([4]; dermal fibroblasts, 4 × 5: four daily doses of 5 μM without exchanging growth medium, OD 492 nm 96 h after first application): significant impact | Cytotoxic activity compared with GO-202 (dose-response, MTS) ([4]; normal cells: dermal fibroblasts, single dose, 96 h, Fig. 7E,F): highly sensitive | Cytotoxic activity compared with GO-202 (dose-response, MTS) [10]: highly sensitive

GKAKCCK
antimicrobial activity [11]: pronounced antimicrobial activity

[R]9FFCPHCYQ [DOL]
Cytotoxic activity compared with GO-202 (dose-response, MTS) [1]: best results | survival rate (MTS assay) ([1]; HT-1080, 96 h incubation with 20 μM peptide, single dose): essentially fully eliminated | Effectiveness in killing cancer cells relative to GO-202 ([7]; 20 μM, MTS 96 h): three times more effective | Cytotoxic activity compared with GO-202 (dose-response, MTS) [2]: outperform GO-202 | Cytotoxic activity compared with GO-202 (dose-response, MTS) [3]: strongest effect | Cytotoxic activity compared with GO-202 (dose-response, MTS) [5]: best result

[R]9CQSRRKN
Viability of HT-1080 cells (MTS) [9]: inactive

[R]9SQCRRKN
Viability of HT-1080 cells (MTS) [9]: inactive

RKCGCFF [peptide of Liu et al., mimic of disulfide isomerase]
Efficiency as a mimic of disulfide isomerase (lysozyme): increased efficiency

[R]9SQSRRKN [control: GO-202 with S-for-C substitution]
Cytotoxic activity compared with GO-202 (dose-response, MTS) [1]: inefficient compared to GO-202 | Viability of HT-1080 cells (MTS) [9]: ineffective
